Tested on: SAM
Experiment: Targeted LC–MS of SAM in plasma, liver, brain and heart
Assay type: in vivo, rat
Method: SAM and methionine levels were quantified in plasma samples and tissues using Ultra Performance Liquid Chromatography (UPLC) coupled with quantitative MS in ESI positive ion mode as described in Supplementary M&M.
For LCMS analysis, standard curves were spiked to give a calibrated range of 1.0 – 1000 nM for SAM and 1.0 – 2000 for methionine. 5 µL of standard spike solution was added to 45 µL of ACN/MeOH/H2O (40/40/20 v/v/v) and 2.5 µL of deuterated citrulline is added as an internal standard. A further calibration curve was prepared with 5 µL blank mouse plasma, 5 µL of standard and 40 µL of 40:40:20 Acetonitrile:Methanol:0.5% formic acid (Aq) with 2.5 µL of deuterated citrulline was used to investigate matrix suppression effects. Blank plasma was also diluted 1:10 with ACN/MeOH/H2O (40/40/20 v/v/v) and was also analysed to establish systemic biomarker levels.
Metabolomic sample preparation and analysis. Tissue samples (liver, brain, heart) were extracted with 1 mL of ACN/MeOH/H2O 40/40/20 v/v/v per 100 mg material in a PrecellysCK28K-2 mL tube. Tissues were homogenised/extracted in 3x20 sec shake at 5500 rpm and centrifuged for 5 min at 10,621g. After centrifugation a maximum of 800 µL clear supernatant was transferred to cryovials and the same amount of extraction solvent used in the first step was added to tissue precipitate. Extraction procedure was repeated as above and clear supernatants combined in the same cryovial and vial labelled as polar metabolite extract. On the remaining tissue pellet 1ml (per100mg tissue material) of Butanol/MeOH 3/1v/v was added and the above extraction sequence applied. Resulted clear supernatant transferred to a clean cryovial and labelled as lipid extract. All samples kept at the lowest available temperature (0 °C) throughout the extraction process and stored at -80 °C until further analysis.

Cn1cc2cc(-c3cc4[nH]nc(C5CC5)c4n(-c4ccc(OC(F)F)cc4)c3=O)ccc2n1 [AZ’9567]
plasma SAM decrease, lower than the vehicle controls (30 mg/kg BID): 70%
brain SAM change (3 and 10 mg/kg BID): no significant change
heart SAM decrease (all dose levels): ~90%
liver SAM decrease (all doses): ~ 45%
